Test results from PMC12731536, “Sc(III) Complexes of Pyclen Derivative Ligands as Probes for Hypoxia: Synthesis, Chemical Characterization, ^44Sc‐Radiolabeling, and Preclinical Assessment” (Chemistry (Weinheim an Der Bergstrasse, Germany), 2025).
Read-outs that look alike come from different tables or passages of the source.

How the values were obtained:
[1] = I = 0.15 M NaCl, T = 25 °C; cited from earlier work
[2] = pH‐potentiometric determination of ligand protonation constants; format: physicochemical; conditions: I = 0.15 M NaCl, T = 25 °C
Protocol: The equilibrium study of the PC2AM^nBu ligand has been started by determining the protonation constants in 0.15 M and 1.00 M NaCl ionic strength. (As the stability of the Sc(III) complex was determined in 1.00 M ionic strength, we had to perform the pH‐potentiometric titration of ligands using 1.00 M ionic strengths also.) The results of pH‐potentiometric measurement are shown in Table 1, where the corresponding data for 3,9‐PC2A,^[ [42] ^] PCTA ^[ [46] ^] and PC2AM‐NI ligands determined under identical conditions are also presented. Knowledge of the protonation constants defined by Eqn. 1 and 2 are essential for the calculation of the stability constants of the Sc(III) complexes:
(1) PC2AM^nBu^2−+nH^+⇌Hn(PC2AM^nBu)^−2+n (2) βn=HnPC2AM^nBu^−2+n/PC2AM^nBu^2−H^+^n
The protonation constants of the ligands, as well as the concentrations of the ligand stock solutions, were determined by pH‐potentiometric method using a Metrohm 785 DMP Titrino automatic titrator using a Metrohm 6.00234.100 combined glass electrode. The titrations were carried out in the pH range 1.75–11.80 and the pH electrode was calibrated by a two‐point calibration routine with the use of 0.05 M KH‐phthalate (pH = 4.005) and 0.01 M borax (pH = 9.177 buffers. The samples were stirred at 25 °C (±0.1 °C) and N2 gas bubbled into the system to ensure inert conditions and to eliminate the effect of the presence of CO2. For the calculation of [H^+] from the measured pH values, the method proposed by Irving et al. was applied.^[ [61] ^] For this, a 0.01 M HCl solution was titrated with the standardized NaOH solution in the presence of 0.15 M NaCl ionic strength at 25 °C. The differences between the measured (pHread) and calculated pH (‐log[H^+]) values were used to obtain the equilibrium H^+ concentration from the pHmeas values during the titrations. By fitting the resulting titration curves (pH – V (NaOH) data pairs) with the PSEQUAD program, the protonation constants of the ligands were determined.^[ [47] ^] The titration of the [Sc(PC2AM^nBu)]^+ with NaOH was performed with the same method by applying very similar conditions.

[3] = system: healthy control and B16‐F10 melanoma cell‐bearing mice; assay: Ex vivo biodistribution studies; format: in vivo; conditions: for B16‐F10 tumor uptake: 14 days after cancer cell inoculation, n = 5 tumor‐bearing mice
Source text: (§1) All animal experiments confirmed to all applicable sections of the Hungarian Laws and the directions and regulations of the European Union, and the in vivo studies have been ethically approved by the Ethics Committee for Animal Experimentation of the University of Debrecen (license number: 16/2020/DEMÁB). C57BL/6 male mice (n = 32, older than 12 weeks, approx. 20 grams) obtained from Charles River Animalab Ltd. (Budapest, Hungary) were used for in vivo PET studies and biodistribution assays. To induce tumor models, 20 mice were subcutaneously transplanted with approximately 3x10^6 tumor cells (in 100 µL physiological saline) at the left shoulder area. Tumor growth was regularly monitored by using caliper measurements. During tumor generation inhalation anesthesia was induced using 3% isoflurane (Forane, AbbVie, Chicago, IL, USA), 0.4 L/min O2, and 0.8 L/min N2O.
To evaluate the organ distribution of the novel ^44Sc‐labeled radiotracers, ex vivo biodistribution experiments were additionally performed. Healthy control and tumor‐bearing mice were administered with approximately 5–7 MBq of [^44Sc][Sc(PC2AM‐NI)]^+ or [^44Sc][Sc(PC2A‐Ph‐NI)]^+ and at 90 ‐ and 240‐minutes post injection, all of them were put to death. Organs and tissues of interest were collected, weighed wet, and γ‐counted (Perkin‐Elmer Packard 406 Cobra, Waltham, MA, USA). After decay correction, the radioactivity of each tissue and organ was calculated as %ID/g.

[4] = system: B16‐F10 tumor‐bearing C57BL/6 mice; assay: In vivo PET studies (MiniPET‐II); conditions: n = 5
Source text: The B16‐F10 mouse melanoma cell line (MC1‐R positive) was the kind gift of the Department of Immunology, Faculty of Medicine, University of Debrecen (Debrecen, Hungary). The cells were routinely cultivated according to the manufacturer's protocols using Dulbecco's Modified Eagle's medium (DMEM, Merck Life Science Ltd., Budapest, Hungary) supplemented with 1% (v/v) MEM Non‐Essential Amino Acid solution (Merck Life Science Ltd.), 1% MEM Vitamins solution (Merck Life Science Ltd.), 10% Fetal Bovine Serum (FBS, GIBCO Life Technologies, Billings, MT, USA), and 1% Antibiotic and Antimicotic solution (Merck Life Science Ltd.) at 37 °C in a humidified atmosphere containing 5% CO2. For tumor induction the cells were used at 85% confluence. Cell viability was determined by applying trypan blue exclusion assay. Those cells were used for subsequent experiments where the staining confirmed that more than 90% of them were viable.
as §1
Preclinical PET studies were performed on the MiniPET‐II scanner of the Department of Nuclear Medicine and Translational Imaging, Institute of Medical Imaging, Faculty of Medicine, University of Debrecen (Debrecen, Hungary). Fourteen days post tumor induction, tumor‐bearing mice (n = 20) were anesthetized (see above) and tail vein injected with approximately 5–7 MBq of [^44Sc][Sc(PC2AM‐NI)]^+ or [^44Sc][Sc(PC2A‐Ph‐NI)]^+. After a 90 ‐ and a 240‐minutes awake incubation period, the mice were re‐anesthetized and 20‐minutes static PET scans were taken. To quantify radiopharmaceutical uptake, followed by image reconstruction (3D ordered‐subsets expectation‐maximization algorithm (3D‐OSEM)), volumes of interest (VOIs) were manually outlined on the tumors and on the hindlimb muscle tissue as a reference region. Using a dedicated imaging analysis software: BrainCAD image analysis software (version: 1.12‐bulid3), mean standardized uptake values (SUVmean) were determined with the following equation: SUV = [VOI activity (Bq/mL)]/[injected activity (Bq)/animal weight (g)]. To assess image contrast, tumor‐to‐off‐target ratios (tumor‐to‐muscle ratio/T/M) were also calculated.

In the case of `O=C(O)CN1CCNCCN(CC(=O)O)Cc2cccc(n2)C1` [3,9‐PC2A], the “log K 1 ^H” value [1] is listed as 12.25, the “log K 2 ^H” value [1] is listed as 5.97 and the “log K 3 ^H” value [1] is listed as 3.47. The “log K 4 ^H” value [1] was 1.99 and the “log β 2 ^H” value [1] was 18.22.

With `O=C(O)CN1CCN(CC(=O)NCCCCCCn2ccnc2[N+](=O)[O-])CCN(CC(=O)O)Cc2cccc(n2)C1` [PC2AM‐NI] the “log K 1 ^H” value [2] was 8.60(3), the “log K 2 ^H” value [2] was 7.39(3) and the “log K 3 ^H” value [2] was 2.28(3). The “log K 4 ^H” value [2] was 1.58(3) and the “log β 2 ^H” value [2] was 15.99.

With `O=C([O-])CN1CCN(CC(=O)NCCCCCCn2ccnc2[N+](=O)[O-])CCN(CC(=O)[O-])Cc2cccc(n2)C1.[44Sc+3]` [[^44Sc][Sc(PC2AM‐NI)]^+] the Blood uptake ([3]; 90 minutes post injection) was 0.09 ± 0.02 %ID/g, the Bone uptake ([3]; 90 minutes post injection) was 0.02 ± 0.00 %ID/g and the Brain uptake ([3]; 90 minutes post injection) was 0.01 ± 0.01 %ID/g. It also gave a Fat uptake ([3]; 90 minutes post injection) of 0.05 ± 0.02 %ID/g, a Heart uptake ([3]; 90 minutes post injection) of 0.04 ± 0.01 %ID/g and a Kidney uptake ([3]; 90 minutes post injection) of 0.83 ± 0.29 %ID/g. It also gave a Liver uptake ([3]; 90 minutes post injection) of 1.55 ± 1.66 %ID/g, a Lung uptake ([3]; 90 minutes post injection) of 0.10 ± 0.02 %ID/g and a Muscle uptake ([3]; 90 minutes post injection) of 0.02 ± 0.00 %ID/g. The Pancreas uptake ([3]; 90 minutes post injection) was 0.04 ± 0.02 %ID/g, the Spleen uptake ([3]; 90 minutes post injection) was 0.07 ± 0.02 %ID/g and the Stomach uptake ([3]; 90 minutes post injection) was 0.09 ± 0.02 %ID/g. For the same compound, the Urine activity ([3]; 90 minutes post injection) was 77.19 ± 37.26 %ID/g, the gall bladder uptake ([3]; 90 minutes post injection) was 42.46 ± 33.31 %ID/g and the large intestines uptake ([3]; 90 minutes post injection) was 0.10 ± 0.07 %ID/g. For the same compound, the salivary gland uptake ([3]; 90 minutes post injection) was 0.03 ± 0.00 %ID/g, the small intestines uptake ([3]; 90 minutes post injection) was 0.92 ± 0.33 %ID/g and the “B16‐F10 tumor uptake” value ([3]; 90 minutes post injection) was 0.27 ± 0.07 %ID/g. For the same compound, the Blood uptake ([3]; 240 minutes post injection) was 0.02 ± 0.01 %ID/g, the Bone uptake ([3]; 240 minutes post injection) was 0.01 ± 0.00 %ID/g and the Brain uptake ([3]; 240 minutes post injection) was 0.01 ± 0.00 %ID/g. For the same compound, the Fat uptake ([3]; 240 minutes post injection) was 0.01 ± 0.00 %ID/g, the Heart uptake ([3]; 240 minutes post injection) was 0.01 ± 0.00 %ID/g and the Kidney uptake ([3]; 240 minutes post injection) was 0.60 ± 0.37 %ID/g. For the same compound, the Liver uptake ([3]; 240 minutes post injection) was 0.90 ± 1.01 %ID/g, the Lung uptake ([3]; 240 minutes post injection) was 0.03 ± 0.01 %ID/g and the Pancreas uptake ([3]; 240 minutes post injection) was 0.01 ± 0.00 %ID/g. For the same compound, the Spleen uptake ([3]; 240 minutes post injection) was 0.03 ± 0.02 %ID/g, the Stomach uptake ([3]; 240 minutes post injection) was 0.04 ± 0.03 %ID/g and the Urine activity ([3]; 240 minutes post injection) was 5.44 ± 1.23 %ID/g. For the same compound, the gall bladder uptake ([3]; 240 minutes post injection) was 15.82 ± 13.89 %ID/g, the large intestines uptake ([3]; 240 minutes post injection) was 0.12 ± 0.12 %ID/g and the salivary gland uptake ([3]; 240 minutes post injection) was 0.01 ± 0.01 %ID/g. The small intestines uptake ([3]; 240 minutes post injection) was 0.20 ± 0.10 %ID/g, the “B16‐F10 tumor uptake” value ([3]; 240 minutes post injection) was 0.17 ± 0.07 %ID/g and the “B16‐F10 SUVmean” value ([4]; 90 minutes post injection) was 0.08 ± 0.02. For the same compound, the “T/M ratio (tumor‐to‐muscle)” value ([4]; 90 minutes post injection) was 4.04 ± 0.02, the “muscle SUVmean” value ([4]; 90 minutes post injection) was 0.02 ± 0.01 and the “B16‐F10 SUVmean” value ([4]; 240 minutes post injection) was 0.04 ± 0.02. For the same compound, the “T/M ratio (tumor‐to‐muscle)” value ([4]; 240 minutes post injection) was 4.02 ± 0.02 and the “muscle SUVmean” value ([4]; 240 minutes post injection) was 0.01 ± 0.01.
